Assay results reported in PMC4116505, “HER2-signaling pathway, JNK and ERKs kinases, and cancer stem-like cells are targets of Bozepinib” (Oncotarget, 2014).

Columns and labels:
CDK8/CycC = CDK8/CycC (Homo sapiens, UniProt P49336); assay: biochemical; design: protein kinase panel (36 kinases), residual activity at two concentrations, singlicate
Procedure: (§1) The kinase inhibition profile of Bozepinib was determined using a panel of 36 protein kinases (Supplementary Table S1). Residual activity values were measured by testing each compound at two concentrations (5×10^−5 M and 5×10^−6 M) in singlicate for each kinase assay. Detailed methods for kinome analyses are provided in Supplementary Materials and Methods. […] Each experiment was repeated three times. Kinase Inhibition Assays Bozepinib was dissolved in volumes of 100% DMSO to reach stock concentrations of 5×10^-3 M/100% DMSO and 5×10^-4 M/100% DMSO, respectively. In the process, the 5×10^-3 M/100% DMSO and 5×10^-4 M/100% DMSO solutions were diluted with water to 5×10^-4 M/10% DMSO and 5×10^-5 M/10% DMSO in a 96 well microtiter plate directly before use. For every kinase, 5 μl from each of the 5×10^-4 M/10% DMSO and 5×10^-5 M/10% DMSO compound solutions were transferred into the assay plates. The To study the effect of Bozepinib on cancer proliferation pathways, we carried out an ex vivo multikinase screening assay (n=36) using 5μM and 50μM (Supplementary Table S3). […] In order to analyze whether Bozepinib inhibits the HER2 signaling pathways in breast cancer cells, we treated the HER2 positive SKBR-3 cell line with 5 μM of Bozepinib and we analyzed the expression and activation of proteins involved in HER2 signaling at different times post-treatment by western blot analysis (Fig. 1A). […] Moreover, we also detected both the inhibition of ERKs and JNK phosphorylation in MCF-7 and MDA-MB 468 breast cancer cell lines, that was more notable in MCF-7 cells at 4 hours post-treatment and in MDA-MB 468 cell line after 8 hours post-treatment (Fig. 1B and 1C).

JAK3 = JAK3 (Homo sapiens, UniProt P52333); assay: biochemical; design: protein kinase panel (36 kinases), residual activity at two concentrations, singlicate
Procedure: as §1

AKT2 [1] = molecular target: T1, AKT2 (Homo sapiens, UniProt P31751); assay: biochemical; design: protein kinase panel (36 kinases), residual activity at two concentrations, singlicate
T1 sequence (P31751 whole entry): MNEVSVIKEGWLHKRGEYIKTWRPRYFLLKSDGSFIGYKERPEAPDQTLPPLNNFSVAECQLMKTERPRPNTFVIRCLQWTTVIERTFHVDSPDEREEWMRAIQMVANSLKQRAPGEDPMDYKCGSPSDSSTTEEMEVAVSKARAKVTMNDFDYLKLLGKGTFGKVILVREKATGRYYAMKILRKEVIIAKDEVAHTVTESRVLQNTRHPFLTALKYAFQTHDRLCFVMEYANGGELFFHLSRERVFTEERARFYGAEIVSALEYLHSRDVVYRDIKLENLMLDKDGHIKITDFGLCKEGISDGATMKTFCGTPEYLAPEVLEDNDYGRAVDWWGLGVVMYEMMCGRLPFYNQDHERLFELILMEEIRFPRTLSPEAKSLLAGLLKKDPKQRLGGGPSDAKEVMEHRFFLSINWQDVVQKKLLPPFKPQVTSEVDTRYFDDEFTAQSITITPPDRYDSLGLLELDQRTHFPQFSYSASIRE
Procedure: as §1

PKC-alpha = molecular target: T2, PKC-alpha (Homo sapiens, UniProt P17252); assay: biochemical; design: protein kinase panel (36 kinases), residual activity at two concentrations, singlicate
T2 construct: gene PRKCA
Procedure: as §1

ERK2 = molecular target: T3, ERK2 (Homo sapiens, UniProt P28482); assay: biochemical; design: protein kinase panel (36 kinases), residual activity at two concentrations, singlicate
T3 construct: gene MAPK1
T3 sequence (P28482 whole entry): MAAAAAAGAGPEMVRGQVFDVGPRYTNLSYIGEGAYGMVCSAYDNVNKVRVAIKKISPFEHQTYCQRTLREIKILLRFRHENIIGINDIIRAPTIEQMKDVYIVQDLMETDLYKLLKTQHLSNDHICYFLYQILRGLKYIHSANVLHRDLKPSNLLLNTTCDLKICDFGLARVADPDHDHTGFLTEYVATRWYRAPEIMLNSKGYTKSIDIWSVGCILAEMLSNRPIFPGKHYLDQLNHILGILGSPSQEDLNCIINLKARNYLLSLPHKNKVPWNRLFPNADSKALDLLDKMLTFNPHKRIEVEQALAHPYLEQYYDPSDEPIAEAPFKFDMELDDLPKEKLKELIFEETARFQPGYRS
Procedure: as §1

IKK-epsilon = molecular target: T4, IKK-epsilon (Homo sapiens, UniProt Q14164); assay: biochemical; design: protein kinase panel (36 kinases), residual activity at two concentrations, singlicate
T4 construct: gene IKBKE
Procedure: as §1

JNK3 = molecular target: T5, JNK3 (Homo sapiens, UniProt P53779); assay: biochemical; design: protein kinase panel (36 kinases), residual activity at two concentrations, singlicate
T5 construct: gene MAPK10
Procedure: as §1

VEGFR-3 [2] = molecular target: T6, VEGFR-3 (Homo sapiens, UniProt P35916); assay: biochemical; design: protein kinase panel (36 kinases), residual activity at two concentrations, singlicate
T6 construct: gene FLT4
T6 sequence (P35916 25-1363): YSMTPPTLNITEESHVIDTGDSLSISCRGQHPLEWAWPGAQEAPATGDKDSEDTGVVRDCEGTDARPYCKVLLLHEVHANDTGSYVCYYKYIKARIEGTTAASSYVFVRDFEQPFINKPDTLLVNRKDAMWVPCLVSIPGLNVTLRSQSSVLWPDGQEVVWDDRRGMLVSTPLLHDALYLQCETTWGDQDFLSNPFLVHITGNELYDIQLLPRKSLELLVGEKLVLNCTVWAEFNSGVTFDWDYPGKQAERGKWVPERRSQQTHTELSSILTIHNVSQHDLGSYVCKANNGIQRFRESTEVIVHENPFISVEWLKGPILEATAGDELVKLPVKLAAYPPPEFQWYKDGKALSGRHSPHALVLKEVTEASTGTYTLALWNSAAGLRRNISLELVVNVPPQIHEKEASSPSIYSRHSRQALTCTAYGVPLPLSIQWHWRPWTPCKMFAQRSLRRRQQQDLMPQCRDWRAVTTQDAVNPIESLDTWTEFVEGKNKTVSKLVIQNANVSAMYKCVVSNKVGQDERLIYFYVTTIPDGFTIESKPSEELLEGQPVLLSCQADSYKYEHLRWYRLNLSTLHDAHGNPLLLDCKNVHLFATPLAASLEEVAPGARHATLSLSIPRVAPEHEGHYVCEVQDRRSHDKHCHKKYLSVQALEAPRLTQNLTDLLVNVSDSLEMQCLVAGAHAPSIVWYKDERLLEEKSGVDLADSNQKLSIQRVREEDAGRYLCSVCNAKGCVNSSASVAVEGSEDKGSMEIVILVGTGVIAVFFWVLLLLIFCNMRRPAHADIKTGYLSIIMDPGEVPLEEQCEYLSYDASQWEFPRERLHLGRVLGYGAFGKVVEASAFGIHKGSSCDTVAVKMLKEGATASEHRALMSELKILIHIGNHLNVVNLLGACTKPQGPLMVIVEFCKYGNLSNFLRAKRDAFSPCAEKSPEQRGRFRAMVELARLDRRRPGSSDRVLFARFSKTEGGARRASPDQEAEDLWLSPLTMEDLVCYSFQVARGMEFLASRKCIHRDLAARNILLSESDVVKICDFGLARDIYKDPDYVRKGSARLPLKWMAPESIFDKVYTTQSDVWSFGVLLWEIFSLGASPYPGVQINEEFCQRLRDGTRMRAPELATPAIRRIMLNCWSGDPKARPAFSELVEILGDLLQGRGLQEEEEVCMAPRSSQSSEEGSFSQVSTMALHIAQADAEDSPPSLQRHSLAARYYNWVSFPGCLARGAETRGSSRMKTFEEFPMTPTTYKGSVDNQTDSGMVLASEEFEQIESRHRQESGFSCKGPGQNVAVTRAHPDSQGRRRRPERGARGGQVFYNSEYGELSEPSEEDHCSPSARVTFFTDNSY
Procedure: as §1

IKK-beta = molecular target: T7, IKK-beta (Homo sapiens, UniProt O14920); assay: biochemical; design: protein kinase panel (36 kinases), residual activity at two concentrations, singlicate
T7 construct: gene IKBKB
Procedure: as §1

PDK1 = molecular target: T8, PDK1 (Homo sapiens, UniProt O15530); assay: biochemical; design: protein kinase panel (36 kinases), residual activity at two concentrations, singlicate
T8 construct: gene PDPK1
Procedure: as §1

HER2 [3] = molecular target: T9, HER2 (Homo sapiens, UniProt P04626); assay: biochemical; design: protein kinase panel (36 kinases), residual activity at two concentrations, singlicate
T9 construct: gene ERBB2
T9 sequence (P04626 23-1255): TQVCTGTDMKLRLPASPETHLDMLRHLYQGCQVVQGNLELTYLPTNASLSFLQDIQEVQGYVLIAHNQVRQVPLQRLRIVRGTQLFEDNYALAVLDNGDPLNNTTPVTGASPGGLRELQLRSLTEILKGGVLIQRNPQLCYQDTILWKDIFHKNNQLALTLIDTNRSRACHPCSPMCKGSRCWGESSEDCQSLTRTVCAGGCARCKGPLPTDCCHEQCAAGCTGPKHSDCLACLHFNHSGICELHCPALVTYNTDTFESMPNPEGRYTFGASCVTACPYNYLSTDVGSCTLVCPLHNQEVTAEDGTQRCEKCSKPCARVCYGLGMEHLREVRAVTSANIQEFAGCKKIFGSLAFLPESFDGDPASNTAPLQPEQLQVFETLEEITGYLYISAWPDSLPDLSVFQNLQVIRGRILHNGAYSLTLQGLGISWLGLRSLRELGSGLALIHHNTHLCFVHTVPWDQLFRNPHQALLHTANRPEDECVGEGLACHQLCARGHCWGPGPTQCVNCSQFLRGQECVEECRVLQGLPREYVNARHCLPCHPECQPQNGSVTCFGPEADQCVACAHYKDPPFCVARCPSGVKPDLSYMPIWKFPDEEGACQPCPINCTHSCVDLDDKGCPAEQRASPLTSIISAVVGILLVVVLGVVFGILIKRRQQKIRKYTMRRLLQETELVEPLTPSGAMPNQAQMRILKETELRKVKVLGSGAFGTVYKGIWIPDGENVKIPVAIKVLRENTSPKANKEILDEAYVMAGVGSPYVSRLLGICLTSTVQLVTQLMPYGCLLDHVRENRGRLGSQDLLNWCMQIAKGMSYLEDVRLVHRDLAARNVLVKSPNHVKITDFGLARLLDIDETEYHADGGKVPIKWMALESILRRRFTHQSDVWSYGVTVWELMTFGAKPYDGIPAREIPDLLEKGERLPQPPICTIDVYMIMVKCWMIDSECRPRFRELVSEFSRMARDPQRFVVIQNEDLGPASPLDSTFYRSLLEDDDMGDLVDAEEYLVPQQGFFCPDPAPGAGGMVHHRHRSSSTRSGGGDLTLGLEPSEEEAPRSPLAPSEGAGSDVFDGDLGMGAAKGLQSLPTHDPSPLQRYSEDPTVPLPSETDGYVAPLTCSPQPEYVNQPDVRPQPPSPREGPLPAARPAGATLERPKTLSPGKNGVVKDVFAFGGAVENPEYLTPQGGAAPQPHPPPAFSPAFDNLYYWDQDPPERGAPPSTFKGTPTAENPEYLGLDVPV
Procedure: as §1

IKK- alpha = molecular target: T10, IKK- alpha (Homo sapiens, UniProt O15111); assay: biochemical; design: protein kinase panel (36 kinases), residual activity at two concentrations, singlicate
T10 construct: gene CHUK
Procedure: as §1

AKT3 = AKT3 (Homo sapiens, UniProt Q9Y243); assay: biochemical; design: protein kinase panel (36 kinases), residual activity at two concentrations, singlicate
Procedure: as §1

JNK1 = molecular target: T11, JNK1 (Homo sapiens, UniProt P45983); assay: biochemical; design: protein kinase panel (36 kinases), residual activity at two concentrations, singlicate
T11 construct: gene MAPK8
Procedure: as §1

EGFR = EGFR (Homo sapiens, UniProt P00533); assay: biochemical; design: protein kinase panel (36 kinases), residual activity at two concentrations, singlicate
Procedure: as §1

AKT1 = AKT1 (Homo sapiens, UniProt P31749); assay: biochemical; design: protein kinase panel (36 kinases), residual activity at two concentrations, singlicate
Procedure: as §1

STK23 = molecular target: T12, STK23 (Homo sapiens, UniProt Q9UPE1); assay: biochemical; design: protein kinase panel (36 kinases), residual activity at two concentrations, singlicate
T12 construct: gene SRPK3
Procedure: as §1

STK33 = STK33 (Homo sapiens, UniProt Q9BYT3); assay: biochemical; design: protein kinase panel (36 kinases), residual activity at two concentrations, singlicate
Procedure: as §1

JNK2 = molecular target: T13, JNK2 (Homo sapiens, UniProt P45984); assay: biochemical; design: protein kinase panel (36 kinases), residual activity at two concentrations, singlicate
T13 construct: gene MAPK9
Procedure: as §1

P38-alpha = molecular target: T14, P38-alpha (Homo sapiens, UniProt Q16539); assay: biochemical; design: protein kinase panel (36 kinases), residual activity at two concentrations, singlicate
T14 construct: gene MAPK14
Procedure: as §1

CDK7/CycH/MAT1 = CDK7/CycH/MAT1 (Homo sapiens, UniProt P50613); assay: biochemical; design: protein kinase panel (36 kinases), residual activity at two concentrations, singlicate
Procedure: as §1

VEGFR-1 [4] = molecular target: T15, VEGFR-1 (Homo sapiens, UniProt P17948); assay: biochemical; design: protein kinase panel (36 kinases), residual activity at two concentrations, singlicate
T15 construct: gene FLT1
Procedure: as §1

CDK6/CycD1 = CDK6/CycD1 (Homo sapiens, UniProt Q00534); assay: biochemical; design: protein kinase panel (36 kinases), residual activity at two concentrations, singlicate
Procedure: as §1

CDK9/CycT = CDK9/CycT (Homo sapiens, UniProt P50750); assay: biochemical; design: protein kinase panel (36 kinases), residual activity at two concentrations, singlicate
Procedure: as §1

VEGFR-2 [5] = molecular target: T16, VEGFR-2 (Homo sapiens, UniProt P35968); assay: biochemical; design: protein kinase panel (36 kinases), residual activity at two concentrations, singlicate
T16 construct: gene KDR
T16 sequence (P35968 20-1356): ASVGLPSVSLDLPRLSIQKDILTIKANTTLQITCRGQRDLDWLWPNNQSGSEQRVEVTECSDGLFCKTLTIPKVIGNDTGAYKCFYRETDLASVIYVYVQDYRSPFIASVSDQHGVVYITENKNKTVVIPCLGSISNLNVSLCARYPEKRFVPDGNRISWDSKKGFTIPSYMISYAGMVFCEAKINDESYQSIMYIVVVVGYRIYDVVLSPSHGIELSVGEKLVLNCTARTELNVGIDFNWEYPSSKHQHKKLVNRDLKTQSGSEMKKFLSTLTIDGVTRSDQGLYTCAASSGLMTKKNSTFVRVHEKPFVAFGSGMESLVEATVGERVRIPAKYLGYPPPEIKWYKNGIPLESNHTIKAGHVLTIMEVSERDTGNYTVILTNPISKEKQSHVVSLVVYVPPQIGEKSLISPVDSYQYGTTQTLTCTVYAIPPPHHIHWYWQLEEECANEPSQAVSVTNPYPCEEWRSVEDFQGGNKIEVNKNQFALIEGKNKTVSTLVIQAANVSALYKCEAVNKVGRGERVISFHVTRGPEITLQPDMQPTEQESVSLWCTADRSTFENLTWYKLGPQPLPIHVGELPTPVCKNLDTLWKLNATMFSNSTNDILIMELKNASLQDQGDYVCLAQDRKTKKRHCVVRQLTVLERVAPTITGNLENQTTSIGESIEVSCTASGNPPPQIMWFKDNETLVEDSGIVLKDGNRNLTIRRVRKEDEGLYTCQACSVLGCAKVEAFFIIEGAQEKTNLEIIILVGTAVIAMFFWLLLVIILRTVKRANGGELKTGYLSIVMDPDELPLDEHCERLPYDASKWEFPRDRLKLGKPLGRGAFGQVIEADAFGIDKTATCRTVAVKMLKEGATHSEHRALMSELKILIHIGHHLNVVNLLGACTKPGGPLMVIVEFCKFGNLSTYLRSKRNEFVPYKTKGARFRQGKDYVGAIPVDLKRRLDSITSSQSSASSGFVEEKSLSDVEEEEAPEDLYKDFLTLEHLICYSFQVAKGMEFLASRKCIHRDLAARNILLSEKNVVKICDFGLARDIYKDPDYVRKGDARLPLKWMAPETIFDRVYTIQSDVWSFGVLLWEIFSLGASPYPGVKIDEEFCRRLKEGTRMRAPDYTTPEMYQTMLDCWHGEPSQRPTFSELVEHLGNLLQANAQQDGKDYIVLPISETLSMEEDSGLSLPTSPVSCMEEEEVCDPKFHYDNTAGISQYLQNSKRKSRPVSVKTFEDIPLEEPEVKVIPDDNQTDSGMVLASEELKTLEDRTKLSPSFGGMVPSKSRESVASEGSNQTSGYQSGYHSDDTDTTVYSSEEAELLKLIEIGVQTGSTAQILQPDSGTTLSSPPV
Procedure: as §1

RET = RET (Homo sapiens, UniProt P07949); assay: biochemical; design: protein kinase panel (36 kinases), residual activity at two concentrations, singlicate
Procedure: as §1

VEGFR-3 [6] = molecular target: T6, VEGFR-3; assay: 36-kinase panel, residual activity at […]; type: biochemical
VEGFR-2 [7] = molecular target: T16, VEGFR-2; assay: 36-kinase panel, residual activity at […]; type: biochemical
AKT2 [8] = molecular target: T1, AKT2; assay: 36-kinase panel, residual activity at […]; type: biochemical
HER2 [9] = molecular target: T9, HER2; assay: 36-kinase panel, residual activity at […]; p-HER2 loss in SKBR-3 cells by western blot; type: biochemical
VEGFR-1 [10] = molecular target: T15, VEGFR-1; assay: 36-kinase panel, residual activity at […]; type: biochemical
[11] = read-out: Bozepinib 5 µM, residual activity %
[12] = read-out: Bozepinib 50 µM, residual activity %

SMILES: O=[N+]([O-])c1ccc(S(=O)(=O)N2CC(n3cnc4c(Cl)nc(Cl)nc43)OCc3ccccc32)cc1 (racemic) [Bozepinib, (RS)-2,6-dichloro-9-[1-(p-nitrobenzenesulfonyl)-1,2,3,5-tetrahydro-4,1-benzoxazepin-3-yl]-9H-purine]
- remaining activity at 5 µM (CDK8/CycC; [11]): 109%
- remaining activity at 50 µM (CDK8/CycC; [12]): 72%
- remaining activity at 5 µM (JAK3; [11]): 94%
- remaining activity at 50 µM (JAK3; [12]): 43%
- remaining activity at 5 µM (AKT2 [1]; [11]): 100%
- remaining activity at 50 µM (AKT2 [1]; [12]): 43%
- remaining activity at 5 µM (PKC-alpha; [11]): 86%
- remaining activity at 50 µM (PKC-alpha; [12]): 24%
- remaining activity at 5 µM (ERK2; [11]): 104%
- remaining activity at 50 µM (ERK2; [12]): 50%
- remaining activity at 5 µM (IKK-epsilon; [11]): 113%
- remaining activity at 50 µM (IKK-epsilon; [12]): 71%
- remaining activity at 5 µM (JNK3; [11]): 81%
- remaining activity at 50 µM (JNK3; [12]): 43%
- remaining activity at 5 µM (VEGFR-3 [2]; [11]): 84%
- remaining activity at 50 µM (VEGFR-3 [2]; [12]): 13%
- remaining activity at 5 µM (IKK-beta; [11]): 113%
- remaining activity at 50 µM (IKK-beta; [12]): 78%
- remaining activity at 5 µM (PDK1; [11]): 41%
- remaining activity at 50 µM (PDK1; [12]): 27%
- remaining activity at 5 µM (HER2 [3]; [11]): 101%
- remaining activity at 50 µM (HER2 [3]; [12]): 25%
- remaining activity at 5 µM (IKK- alpha; [11]): 104%
- remaining activity at 50 µM (IKK- alpha; [12]): 51%
- remaining activity at 5 µM (AKT3; [11]): 98%
- remaining activity at 50 µM (AKT3; [12]): 88%
- remaining activity at 5 µM (JNK1; [11]): 45%
- remaining activity at 50 µM (JNK1; [12]): 29%
- remaining activity at 5 µM (EGFR; [11]): 84%
- remaining activity at 50 µM (EGFR; [12]): 17%
- remaining activity at 5 µM (AKT1; [11]): 96%
- remaining activity at 50 µM (AKT1; [12]): 78%
- remaining activity at 5 µM (STK23; [11]): 95%
- remaining activity at 50 µM (STK23; [12]): 89%
- remaining activity at 5 µM (STK33; [11]): 102%
- remaining activity at 50 µM (STK33; [12]): 72%
- remaining activity at 5 µM (JNK2; [11]): 77%
- remaining activity at 50 µM (JNK2; [12]): 37%
- remaining activity at 5 µM (P38-alpha; [11]): 115%
- remaining activity at 50 µM (P38-alpha; [12]): 57%
- remaining activity at 5 µM (CDK7/CycH/MAT1; [11]): 96%
- remaining activity at 50 µM (CDK7/CycH/MAT1; [12]): 69%
- remaining activity at 5 µM (VEGFR-1 [4]; [11]): 91%
- remaining activity at 50 µM (VEGFR-1 [4]; [12]): 18%
- remaining activity at 5 µM (CDK6/CycD1; [11]): 95%
- remaining activity at 50 µM (CDK6/CycD1; [12]): 64%
- remaining activity at 5 µM (CDK9/CycT; [11]): 102%
- remaining activity at 50 µM (CDK9/CycT; [12]): 69%
- remaining activity at 5 µM (VEGFR-2 [5]; [11]): 82%
- remaining activity at 50 µM (VEGFR-2 [5]; [12]): 13%
- remaining activity at 5 µM (RET; [11]): 79%
- remaining activity at 50 µM (RET; [12]): 14%
- 36-kinase panel, residual activity at 5 and 50 μM (VEGFR-3 [6]): showed inhibitory effects against VEGFR-1, VEGFR-2 and VEGFR-3 in the kinome assay
- 36-kinase panel, residual activity at 5 and 50 μM (VEGFR-2 [7]): showed inhibitory effects against VEGFR-1, VEGFR-2 and VEGFR-3 in the kinome assay
- 36-kinase panel, residual activity at 5 and 50 μM (AKT2 [8]): HER2, AKT2 and VEGF receptors were considerably inhibited in the screening (Supplementary Table S3)
- 36-kinase panel, residual activity at 5 and 50 μM; p-HER2 loss in SKBR-3 cells b (HER2 [9]): HER2, AKT2 and VEGF receptors were considerably inhibited in the screening (Supplementary Table S3)
- 36-kinase panel, residual activity at 5 and 50 μM (VEGFR-1 [10]): showed inhibitory effects against VEGFR-1, VEGFR-2 and VEGFR-3 in the kinome assay
